Experiment [1] concerns Vitis vinifera cv. Early Sweet single-node cuttings. Kind of experiment: Bud break on grapevine single-node cuttings in growth chamber. The experiment is classed as in vivo.
Experiment [2] has as its system cv. Early Sweet vines. Kind of experiment: Bud break on whole vines in a vineyard, Jordan Valley (spur pruning, hot winter). It counts as in vivo, Vitis vinifera. To be noted: Example 2, FIG. 2, negative control Triton, positive control 5% HC.
The subject of experiment [3] is berries of cv. Early Sweet vines. Kind of experiment: TSS (sugar) level of berries of treated vines. The experiment is classed as in vivo, Vitis vinifera. The conditions noted are these: Example 3, FIG. 4; 6% DADS with 2% Armobreak®; Brix meter; versus control and HC.
The test system of experiment [4] is cv. Early Sweet vines. Nature of the experiment: Bud break on whole vines, greenhouse in Argaman, Jordan Valley. To be noted: Example 21, FIGS. 23A, 23B; 6% DADS alone (DADS 6% control); natural bud break about 25-45%. The experiment is classed as in vivo, Vitis vinifera.
The test system of experiment [5] is grapevine buds (cuttings, whole vine). To be noted: cited from earlier work.
The test system of experiment [6] is corms, tubers and apple buds. The conditions noted are these: cited from earlier work.
Experiment [7] deals with whole vines in vineyards. Kind of experiment: Overall bud break in vineyards, summary over the examples. It counts as in vivo, grapevine. The conditions noted are these: spur pruned vineyard in region with higher chilling (FIG. 19, Example 17).

Consider `C=CCSSCC=C` [DADS, diallyl disulfide], for which the bud break result in experiment [1] (Example 1, FIG. 1, 1% DADS sprayed with 0.02% Triton X-100, compared with 0.1%, 5% and 10% DADS) is “best result”; in experiment [1] (Example 1, FIG. 1, 5% DADS sprayed with 0.02% Triton X-100, control 0.02% Triton X-100 only, 22° C., monitored to day 28), “toxic and actually inhibit bud break”; in experiment [1] (Example 1, FIG. 1, 10% DADS sprayed with 0.02% Triton X-100, control 0.02% Triton X-100 only, monitored to day 28), “toxic and actually inhibit bud break”; in experiment [2] (2% DADS with 0.02% Triton X-100), “no effect”; in experiment [2] (4% DADS with 0.02% Triton X-100), “slight enhancement in bud break in comparison to the negative control”; in experiment [4] it was “results within the range of the natural bud break”. Further, the bud break result in experiment [6] was “enhanced bud break of corms, tubers and apple buds”. For the same compound, the “TSS levels of the berries (ripening)” value in experiment [3] is recorded as “increase the total soluble solids (TSS) level of the berries in comparison to the control”. In addition, the “bud break enhancing effect” value in experiment [5] (applied to the whole vine, rather than to cuttings) was “very limited and inferior to the known HC”. Besides, the “grapevine bud break enhancement among garlic volatile compounds” value in experiment [5] (volatile compounds containing sulfur and allyl groups) is “particularly effective”.
As to `N#CN` [HC, hydrogen cyanamide], the bud break entry in experiment [7] is “a milder effect or no effect”.
In the case of `C=CCSCC=C` [DAS, Diallyl Sulfide], the bud break entry in experiment [1] (Example 5, FIG. 7, higher concentrations of DAS (0.1%, 1%, 5% tested) with 2% Armobreak®, control 2% Armobreak®) was “may reduce bud breaking”; in experiment [1] (Example 5, FIG. 7, relatively low concentrations of DAS (0.1%, 1%, 5% tested) with 2% Armobreak®, control 2% Armobreak®), “enhance bud breaking in grapevine cuttings”.

The values above are taken from patent publication US11213027B2, “Combined administration of a penetration agent and a sulfur containing compound to plants” (THE STATE OF ISRAEL, MINISTRY OF AGRICULTURE & RURAL …, priority 2016, dated 2022).
